Where two headings read alike, the source gives them in different places.
How the values were obtained:
[1] = system: HCT116 p53+/+, HCT116 p53−/−, Raji, HeLa, SK-N-MC and NHDF cells; assay: Proliferation assay, ranges stated over several cell-types; assay type: cell-based, human; conditions: for IC50: Homo sapiens; for Therapeutic index, NHDF relative to HCT116 cells: range over HCT116 p53+/+ and p53−/− and over the compounds named
Protocol: The human cancer cell types (neuroepithelioma (SK-N-MC), colon cancer (HCT116 with wild-type p53 (p53^+/+)), Burkitt's lymphoma (Raji) and cervical carcinoma (HeLa)) cells and normal human dermal fibroblasts (NHDF) were obtained from the American Type Culture Collection (ATCC, Manassas, VA, USA). HCT116 null p53 (p53^−/−) cells were obtained from the Maria Sklodowska-Curie Memorial Cancer Center and Institute of Oncology, Poland.
The SK-N-MC cells were cultured in minimum essential medium (MEM; Life Technologies, Grand Island, New York, USA) containing 10% (v/v) fetal bovine serum (FBS; Life Technologies), 1 mM sodium pyruvate (Life Technologies), 1% (v/v) non-essential amino acids (Life Technologies), 2 mM L-glutamine (Life Technologies), 100 U/mL penicillin (Life Technologies), 100 µg/mL streptomycin (Life Technologies) and 0.28 µg/mL fungizone (Bristol Myers Squibb Pharmaceuticals, Montreal, Canada). The HCT116 and NHDF cells were grown in Dulbecco's modified Eagle's medium (DMEM; Sigma-Aldrich) supplemented with 12% (v/v) heat-inactivated FBS (HCT116; Life Technologies) or 15% (v/v) FBS (NHDF; Life Technologies), 100 µg/mL of gentamicin (Polfa Warszawa S.A., Warsaw, Poland), 100 µg/mL of streptomycin (Polfa) and 100 U/mL of penicillin (Polfa). The Raji and HeLa cells were cultured in Roswell Park Memorial Institute medium (RPMI-1640; Sigma-Aldrich) with the addition of 10% (v/v) heat-inactivated FBS (Life Technologies) and the supplements described for SK-N-MC cells above. All cell lines were cultured under standard conditions at 37°C in a humidified atmosphere at 5% CO2 and were subcultured every 3–4 days as required.
The cells were seeded in 96-well plates (SK-N-MC: 1.5×10^4 cells/well; HeLa: 5.0×10^3 cells/well; Raji: 3.0×10^3 cells/well; HCT116: 3.5×10^3 cells/well; NHDF: 3.0×10^3 cells/well) 24 h prior to the addition of the novel compounds. The assays were performed using a 72 h (SK-N-MC, Raji, HeLa) or 96 h (HCT 116, NHDF) incubation period with the agents at 37°C. […] Additionally, DFO and Dp44mT were included as positive controls in all experiments as their activity is well characterized, [42], [50].
Chelator stock solutions were prepared in DMSO and diluted in media so that the final [DMSO] <0.05%. The results were expressed as a percentage of the control and the resulting IC50 values were calculated using GraphPad Prism 5 (GraphPad Software, Inc., La Jolla, CA, USA). The IC50 was defined as the concentration necessary to reduce the absorbance to 50% of the untreated control. Each individual compound was tested in triplicate in a single experiment, with each experiment being repeated three times. After incubation of HCT 116 and NHDF cells with the tested compounds, 20 µL of the CellTiter 96 Aqueous One Solution - MTS (Promega, Madison, WI, USA) solution was added to each well (with 100 µL of DMEM without phenol red) and incubated for 1 h/37°C. The optical density of the samples was analyzed at 490 nm.
MTT (3-[4,5-dimethylthiazol-2-yl]-2,5-diphenyltetrazolium bromide) was used to evaluate the anti-proliferative effects of the chelators in SK-N-MC and Raji cells. Following incubation with the investigated compounds, 10 µL of MTT (5 mg/mL in PBS; Sigma-Aldrich) was added to each well. After a 2 h (SK-N-MC) or 4 h (Raji) incubation, the plates were centrifuged, and the cells were lysed with 100 µL of 10% SDS-50% isobutanol in 0.01 M HCl (SK-N-MC) or DMSO (Raji). The absorbance was measured at 570 nm. The anti-proliferative effects of these novel agents on HeLa cells were estimated using crystal violet staining (0.5% crystal violet solution for 10 min). Finally, the wells were rinsed with water and the cells were lysed with 2% SDS. The optical density of the samples was analyzed at 595 nm.

[2] = system: murine M109 lung carcinoma; design: method as in PMID 15150082; conditions: five day treatment, 0.4 mg/kg, mice; cited from earlier work
[3] = design: method as in PMID 17003122; conditions: high, non-optimal doses; cited from earlier work
[4] = HCT-116, range over HCT116 p53+/+ and p53−/− cells and over the compounds named, read-out: IC50 range in HCT116 cells

IC50 [1, 4] | IC50 ([1]; range over the cancer cell-types of Table 1, read-out: IC50 range, anti-cancer activity) | SMILES | Therapeutic index, NHDF relative to HCT116 cells [1] | Growth of murine M109 lung carcinoma (% of the control) [2] | Toxicity finding [3]
0.8 to 90 nM |  | S=C(N/N=C/c1ccc2ccccc2n1)N1CCN(c2ccccc2)CC1 [2b] | 0.4–0.8 |  | 
0.8 to 90 nM |  | CN(C(=S)N/N=C/c1ccc2ccccc2n1)C1CCCCC1 [2f] | 0.4–0.8 |  | 
 | 2 to 40 nM | CN(C)C(=S)NN=C(c1ccccn1)c1ccccn1 [Dp44mT, di-2-pyridylketone 4,4-dimethyl-3-thiosemicarbazone, reference compound] |  | 47% | cardiac fibrosis

Reference: publication PMC4199632, “Exploring the Anti-Cancer Activity of Novel Thiosemicarbazones Generated through the Combination of Retro-Fragments: Dissection of Critical Structure-Activity Relationships” (PLoS ONE, 2014)
